Measured values as given in patent US10183914B2 (BAYER CROPSCIENCE AKTIENGESELLSCHAFT, priority 2014, dated 2019).

Key:
[1] = logp (HCOOH), physicochemical characterization
[2] = system: Triticum aestivum (spring); test: Pre-emergence herbicidal effect and crop plant compatibility; type: in vivo; details: 3 weeks
Excerpt: (§1) Seeds of monocotyledonous and dicotyledonous weed plants and crop plants are laid out in wood-fiber pots in sandy loam and covered with soil. The compounds of the invention, formulated in the form of wettable powders (WP) or as emulsion concentrates (EC), are then applied to the surface of the covering soil as aqueous suspension or emulsion at a water application rate equating to 600 to 800 L/ha with addition of 0.2% wetting agent.
(§2) After the treatment, the pots are placed in a greenhouse and kept under good growth conditions for the trial plants. The damage to the trial plants is scored visually after a trial duration of 3 weeks by comparison with untreated controls (herbicidal activity in percent (%): 100% efficacy=the plants have died, 0% efficacy=like control plants).

Zea mays [3] = test: as above; type: in vivo; details: 3 weeks
Excerpt: as §1, §2

Alopecurus myosuroides = test: Pre-emergence herbicidal effect; type: in vivo; details: 320 g/ha, 3 weeks
Excerpt: as §1, §2

Amaranthus retroflexus = test: Pre-emergence herbicidal effect; type: in vivo; details: 3 weeks
Excerpt: as §1, §2

Avena fatua = test: Pre-emergence herbicidal effect; type: in vivo; details: 320 g/ha, 3 weeks
Excerpt: as §1, §2

Echinochloa crus-galli [4] = test: Pre-emergence herbicidal effect; type: in vivo; details: 3 weeks
Excerpt: as §1, §2

Lolium multiflorum [5] = test: Pre-emergence herbicidal effect; type: in vivo; details: 3 weeks
Excerpt: as §1, §2

Matricaria inodora = test: Pre-emergence herbicidal effect; type: in vivo; details: 3 weeks
Excerpt: as §1, §2

Polygonum convolvulus = test: Pre-emergence herbicidal effect; type: in vivo; details: 320 g/ha, 3 weeks
Excerpt: as §1, §2

Setaria viridis [6] = test: Pre-emergence herbicidal effect; type: in vivo; details: 3 weeks
Excerpt: as §1, §2

Stellaria media = test: Pre-emergence herbicidal effect; type: in vivo; details: 3 weeks
Excerpt: as §1, §2

Veronica persica = test: Pre-emergence herbicidal effect; type: in vivo; details: 3 weeks
Excerpt: as §1, §2

Viola tricolor = test: Pre-emergence herbicidal effect; type: in vivo; details: 3 weeks
Excerpt: as §1, §2

Oryza sativa [7] = test: Post-emergence herbicidal effect and crop plant compatibility; type: in vivo; details: visual scoring after about 3 weeks
Method: (§3) Seeds of monocotyledonous and dicotyledonous weed and crop plants are laid out in sandy loam in wood-fiber pots, covered with soil and cultivated in a greenhouse under good growth conditions. 2 to 3 weeks after sowing, the test plants are treated at the one-leaf stage. The compounds of the invention, formulated in the form of wettable powders (WP) or as emulsion concentrates (EC), are then sprayed onto the green parts of the plants as aqueous suspension or emulsion at a water application rate equating to 600 to 800 L/ha with addition of 0.2% wetting agent. After the trial plants have been left to stand in a greenhouse under optimal growth conditions for about 3 weeks, the efficacy of the formulations is scored visually in comparison to untreated controls (herbicidal action in percent (%): 100% efficacy=the plants have died, 0% efficacy=like control plants).

[8] = system: Triticum aestivum (spring); test: as above; type: in vivo; details: visual scoring after about 3 weeks
Method: as §3

Echinochloa crus-galli [9] = test: Post-emergence herbicidal effect; type: in vivo; details: 320 g/ha, visual scoring after about 3 weeks
Method: as §3

Ipomoea purpurea = test: Post-emergence herbicidal effect; type: in vivo; details: 320 g/ha (dose by row order of upper half), scoring after about 3 weeks
Method: as §3

Lolium multiflorum [10] = test: Post-emergence herbicidal effect; type: in vivo; details: 320 g/ha, visual scoring after about 3 weeks
Method: as §3

Oryza sativa [11] = test: Pre-emergence herbicidal effect and crop plant compatibility; type: in vivo; details: 3 weeks
Excerpt: as §1, §2

Zea mays [12] = test: Post-emergence herbicidal effect and crop plant compatibility; type: in vivo; details: visual scoring after about 3 weeks
Method: as §3

Abutilon theophrasti = test: Pre-emergence herbicidal effect; type: in vivo; details: 320 g/ha, 3 weeks
Excerpt: as §1, §2

Setaria viridis [13] = test: Post-emergence herbicidal effect; type: in vivo; details: 320 g/ha (dose by row order of upper half), scoring after about 3 weeks
Method: as §3

Row | Compound | logp (HCOOH) [1] | TRZAS herbicidal activity in percent ([2]; 320 g/ha) [%] | ZEAMX herbicidal activity in percent (Zea mays [3]; 320 g/ha) [%] | ALOMY herbicidal activity in percent (Alopecurus myosuroides) [%] | AMARE herbicidal activity in percent (Amaranthus retroflexus; 320 g/ha) [%] | ECHCG herbicidal activity in percent (Echinochloa crus-galli [4]; 320 g/ha) [%] | LOLMU herbicidal activity in percent (Lolium multiflorum [5]; 320 g/ha) [%] | MATIN herbicidal activity in percent (Matricaria inodora; 320 g/ha) [%] | POLCO herbicidal activity in percent (Polygonum convolvulus) [%] | SETVI herbicidal activity in percent (Setaria viridis [6]; 320 g/ha) [%] | STEME herbicidal activity in percent (Stellaria media; 320 g/ha) [%] | VERPE herbicidal activity in percent (Veronica persica; 320 g/ha) [%] | VIOTR herbicidal activity in percent (Viola tricolor; 320 g/ha) [%] | post-emergence efficacy ORYSA (Oryza sativa [7]; 320 g/ha) [%] | post-emergence efficacy TRZAS ([8]; 320 g/ha) [%] | post-emergence efficacy PHBPU (Ipomoea purpurea) [%] | ORYSA herbicidal activity in percent (Oryza sativa [11]; 320 g/ha) [%] | post-emergence efficacy ORYSA (Oryza sativa [7]; 80 g/ha) [%] | post-emergence efficacy TRZAS ([8]; 80 g/ha) [%] | post-emergence efficacy ZEAMX (Zea mays [12]; 80 g/ha) [%] | further results
1 | O=C1CCCc2nc(N[C@@H]3CCOc4c(F)cccc43)ncc21 [2.19] | oily; logp (HCOOH): 2.29; 1H-NMR (CDCl3, 400 MHZ, δ in ppm): 2.15 (m, 3H, 2H | 0 | 10 | 100 | 100 | 100 | 100 | 100 | 100 | 100 | 100 | 100 | 100 | 20 | 20 | 80 | – | – | – | – | AVEFA herbicidal activity in percent (Avena fatua): 90%; post-emergence efficacy ECHCG (Echinochloa crus-galli [9]): 100%; post-emergence efficacy LOLMU (Lolium multiflorum [10]): 100%
2 | CC1(C)CC(=O)c2cnc(N[C@@H]3CCCc4ccccc43)nc2C1 [2.25, 7,7-dimethyl-2-[(1R)-1,2,3,4-tetrahydronaphthalen-1-ylamino]-7,8-dihydroquinazolin-5(6H)-one] | – | – | 0 | – | 100 | 100 | – | 100 | 100 | 100 | 100 | 100 | 100 | 0 | 20 | 90 | 0 | 0 | 10 | 0 | chromatographic logP ([1]; HCOOH (formic acid)): 3.71; ORYSA herbicidal activity in percent (Oryza sativa [11]; 80 g/ha): 0%; TRZAS herbicidal activity in percent ([2]; 80 g/ha): 0%; ZEAMX herbicidal activity in percent (Zea mays [3]; 80 g/ha): 0%; AMARE herbicidal activity in percent (Amaranthus retroflexus; 80 g/ha): 90%; MATIN herbicidal activity in percent (Matricaria inodora; 80 g/ha): 90%; STEME herbicidal activity in percent (Stellaria media; 80 g/ha): 100%; VERPE herbicidal activity in percent (Veronica persica; 80 g/ha): 100%; VIOTR herbicidal activity in percent (Viola tricolor; 80 g/ha): 100%; post-emergence efficacy ZEAMX (Zea mays [12]; 320 g/ha): 0%
3 | Cc1ccc2c(c1)C(Nc1ncc3c(n1)CCCC3=O)CO2 (racemic) [2.117] | oily; logp (HCOOH): 2.52; 1H-NMR (CDCl3, 400 MHZ, δ in ppm): 2.10 (m, 2H, 2H | 0 | 20 | – | – | – | – | 100 | – | – | – | – | – | – | – | – | 0 | – | – | – | ABUTH herbicidal activity in percent (Abutilon theophrasti): 80%
4 | CC1(C)CC(=O)c2cnc(NC3CCOc4ccccc43)nc2C1 (racemic) [2.94] | oily; logp (HCOOH): 2.97; 1H-NMR (CDCl3, 400 MHZ, δ in ppm): 1.10 (s, 6H, | 0 | 0 | 80 | 100 | 100 | 90 | 100 | 100 | 90 | 100 | 100 | 100 | 0 | 20 | 80 | 0 | 0 | 10 | 0 | post-emergence efficacy ZEAMX (Zea mays [12]; 320 g/ha): 0%
5 | Cc1ccc2c(c1)[C@H](Nc1ncc3c(n1)CCCC3=O)[C@@H](C)C2 [2.118] | oily; logp (HCOOH): 4.51; 1H-NMR (CDCl3, 400 MHZ, δ in ppm): 1.25 (d, 3H, 3H | – | 0 | 90 | 100 | 100 | 100 | 100 | 100 | 100 | 100 | 100 | 100 | 0 | – | 100 | 10 | 0 | 0 | 0 | ORYSA herbicidal activity in percent (Oryza sativa [11]; 80 g/ha): 10%; TRZAS herbicidal activity in percent ([2]; 80 g/ha): 0%; ZEAMX herbicidal activity in percent (Zea mays [3]; 80 g/ha): 0%; AMARE herbicidal activity in percent (Amaranthus retroflexus; 80 g/ha): 100%; LOLMU herbicidal activity in percent (Lolium multiflorum [5]; 80 g/ha): 80%; MATIN herbicidal activity in percent (Matricaria inodora; 80 g/ha): 90%; SETVI herbicidal activity in percent (Setaria viridis [6]; 80 g/ha): 100%; STEME herbicidal activity in percent (Stellaria media; 80 g/ha): 100%; VERPE herbicidal activity in percent (Veronica persica; 80 g/ha): 100%; VIOTR herbicidal activity in percent (Viola tricolor; 80 g/ha): 100%; post-emergence efficacy ZEAMX (Zea mays [12]; 320 g/ha): 10%; post-emergence efficacy ECHCG (Echinochloa crus-galli [9]): 100%; post-emergence efficacy LOLMU (Lolium multiflorum [10]): 80%; post-emergence efficacy SETVI (Setaria viridis [13]): 80%
6 | CC(C)C1CC(=O)c2cnc(N[C@@H]3CCc4ccccc43)nc2C1 (stereo partly shown) [2.103] | – | 0 | 0 | 80 | 100 | 100 | 90 | 100 | – | – | 100 | 100 | 100 | 0 | 20 | – | 0 | 0 | 10 | 0 | ORYSA herbicidal activity in percent (Oryza sativa [11]; 80 g/ha): 0%; TRZAS herbicidal activity in percent ([2]; 80 g/ha): 0%; ZEAMX herbicidal activity in percent (Zea mays [3]; 80 g/ha): 0%; AMARE herbicidal activity in percent (Amaranthus retroflexus; 80 g/ha): 100%; ECHCG herbicidal activity in percent (Echinochloa crus-galli [4]; 80 g/ha): 90%; MATIN herbicidal activity in percent (Matricaria inodora; 80 g/ha): 100%; STEME herbicidal activity in percent (Stellaria media; 80 g/ha): 100%; VERPE herbicidal activity in percent (Veronica persica; 80 g/ha): 100%; post-emergence efficacy ZEAMX (Zea mays [12]; 320 g/ha): 0%; post-emergence efficacy LOLMU (Lolium multiflorum [10]): 80%
7 | O=C1CC(C(F)(F)F)Cc2nc(N[C@@H]3CCCc4ccccc43)ncc21 (stereo partly shown) [2.96] | oily; logp (HCOOH): 3.71; 1H-NMR (CDCl3, 400 MHZ, δ in ppm): ): 1.95 (m, 3H, 2H | 0 | 10 | 80 | 100 | 100 | 90 | 90 | 80 | 90 | 100 | 100 | 100 | 0 | 20 | 80 | 0 | 0 | 10 | 0 | TRZAS herbicidal activity in percent ([2]; 80 g/ha): 0%; ZEAMX herbicidal activity in percent (Zea mays [3]; 80 g/ha): 0%; AMARE herbicidal activity in percent (Amaranthus retroflexus; 80 g/ha): 100%; STEME herbicidal activity in percent (Stellaria media; 80 g/ha): 100%; VERPE herbicidal activity in percent (Veronica persica; 80 g/ha): 100%; VIOTR herbicidal activity in percent (Viola tricolor; 80 g/ha): 100%; post-emergence efficacy ZEAMX (Zea mays [12]; 320 g/ha): 10%
